Assay results published in patent US10648038B2, “Biomarkers to identify patients that will respond to treatment and treating such patients” (Acetylon Pharmaceuticals, Inc., priority 2012, dated 2020).

Tested on: 65 cancer cell lines
Assay: Cell viability screening of a panel of 65 cancer cell lines, association with cancer type and gene mutation
Format: cell-based, human
Method: 65 cancer cell lines (including 12 of breast cancer, 11 of hematologic cancer, 9 of colorectal cancer, 6 of lung cancer, 6 of skin cancer, 4 brain cancer, 3 of renal cancer, 3 of liver cancer, 3 of prostate cancer, 3 of pancreatic cancer, 3 of ovarian cancer, and 2 of stomach cancer) were selected for analysis. Each of the cell lines was cultured and treated with the HDAC6 inhibitor, Compound A, with or without the proteasome inhibitor, bortezomib, before their cell viabilities were measured at the end of treatments. The sensitivities of the cell lines were described using the concentration of Compound A that provides 50% inhibition of cell viabilities (IC50). In all analyses, the logarithm of drug sensitivity values (i.e., Log [IC50]) was used, which is more normally distributed than the raw IC50 values. This is because most standard statistical tests (e.g., t-test and correlation analysis) assume the normal distribution of data points.
For the association tests of gene mutations, 50 common oncogene/tumor suppressor genes were selected to analyze the results. Mutation profiles of the cell lines were downloaded from the Sanger COSMIC DB on the Internet: www dot sanger dot ac dot uk/cosmic. For each gene locus, the “Fisher's Exact Test” was used to calculate statistical significance (p<0.05) of association between the genotype and the cell sensitivities to the treatments.

[1] = most cell lines of the panel, agent alone

Compound | sensitivity of cell lines to treatment (cell viability) [1] | sensitivity of cell lines to treatment (cell viability) (a number of lymphoma and leukemia cell lines, single agent) | sensitivity of cell lines to treatment (cell viability) (breast cancer cell lines with Her2 protein overexpression (ERBB2 amplification), Fisher's Exact Test p<0.05) | sensitivity of cell lines to treatment (cell viability) (breast cancer cell lines, basal-type or triple negative, Fisher's Exact Test p<0.05) | sensitivity of cell lines to treatment (cell viability) (cell lines for hematologic malignant cancer, Compound A alone) | sensitivity of cell lines to treatment (cell viability) (lymphoma cells, compared with other cell groups of the 65 lines)
CC(C)C[C@H](NC(=O)[C@H](Cc1ccccc1)NC(=O)c1cnccn1)B(O)O [bortezomib, reference compound] | resistant | – | – | – | – | –
O=C(CCCCCCNC(=O)c1cnc(N(c2ccccc2)c2ccccc2)nc1)NO [Compound A, 2-(diphenylamino)-N-(7-(hydroxyamino)-7-oxoheptyl)pyrimidine-5-carboxamide] | resistant | substantial sensitivity | sensitive | resistant | most sensitive | most sensitive
